Data reported in ChEMBL document CHEMBL3588819, “Antiviral Limonoids Including Khayanolides from the Trang Mangrove Plant Xylocarpus moluccensis” (J Nat Prod, 2015).

These molecules were tested on Influenza A virus (assay: Antiviral activity against influenza A virus (A/Puerto Rico/8/34(H1N1)) infected in MDCK cells assessed as inhibition of virus-induced cytopathic effect incubated for 48 hrs by crystal violet staining based assay). Conditions: A/Puerto Rico/8/1934(H1N1).
Assay type: functional, organism-based

SMILES | IC50 [µM]
NC(=O)c1ncn([C@@H]2O[C@H](CO)[C@@H](O)[C@H]2O)n1 [RIBAVIRIN] | 186
COC(=O)C[C@@H]1[C@@]2(C)[C@H]3CC[C@]4(C)C(=C3[C@@]3(O)[C@@H](OC(C)=O)C(=O)[C@]1(C)C[C@@]23O)CC(=O)O[C@H]4c1ccoc1 | 77.1
COC(=O)C[C@H]1[C@@]2(C)C[C@]3(O)[C@H](C(=O)[C@H]2OC(C)=O)C2=C(CC[C@]4(C)C2=CC(=O)O[C@H]4c2ccoc2)[C@]13C | 122
COC(=O)C[C@H]1[C@@]2(C)C[C@]3(O)[C@H](C(=O)[C@H]2OC(C)=O)C2=C4CC(=O)O[C@@H](c5ccoc5)[C@]4(C)CC[C@@H]2[C@]13C | 114
